Data taken from article PMC3598492, “Cannabinoid receptor type 2 (CB2)-selective N-aryl-oxadiazolyl-propionamides: synthesis, radiolabelling, molecular modelling and biological evaluation” (Organic and Medicinal Chemistry Letters, 2012).

Legend:
hCB2 = target: T1, hCB2 (Homo sapiens, UniProt P34972); assay: Competitive [3H]CP55,940 binding on membrane homogenates of hCB2-CHO cells
T1 construct: host or cells: CHO (hCB2-CHO), crude membrane homogenates
Procedure: (§1) CHO cell lines stably transfected with human CB1 (hCB1-CHO; obtained from Euroscreen, Gosselies, Belgium) or human CB2 (hCB2-CHO; obtained from Paul L. Prather, Department of Pharmacology and Toxicology, College of Medicine, University of Arkansas for Medical Sciences, USA) were cultured in Ham's F12 medium or Dulbecco's modified Eagle's medium (DMEM) with 10% fetal calf serum, 100 IU/mL penicillin, 100 μg/mL streptomycin and 250 or 400 μg/mL of the selection antibiotic Geneticin (G418), respectively. The cells were cultured in a humidified atmosphere with 5% CO2 at 37°C. Confluent cell layers of 175-cm^2 flasks were scraped; cells were harvested by centrifugation (800 rpm, 3 min), counted by trypan blue staining, suspended in 200 μL of 50 mM tris(hydroxymethyl)aminomethane (TRIS; pH 7.4) at 4°C and stored at −32°C until the binding experiment.
(§2) Competitive binding experiments were performed with crude membrane homogenates obtained from hCB1-CHO or hCB2-CHO cells as described above. […] Incubations were terminated by rapid filtration through a GF-B glass fibre filter pre-incubated for 90 min at room temperature in freshly prepared 0.5% polyvinylpyrrolidone + 0.1% Tween 20 solution using a 48-well cell harvester (Brandel, Gaithersburg, MD, USA).
The corresponding inhibition constants (Ki) of test compounds were derived from the IC50 values using the Cheng-Prusoff equation [49]. All binding experiments were performed in triplicates, and data are given as mean values from independent experiments.

hCB1 = target: T2, hCB1 (Homo sapiens, UniProt P21554); assay: Competitive [3H]CP55,940 binding on membrane homogenates of hCB1-CHO cells; conditions: hCB1-CHO; read-out: Ki hCB1
T2 construct: host or cells: CHO (hCB1-CHO), crude membrane homogenates
Procedure: as §1, §2
Binding data were analysed using GraphPad Prism version 2.01 (GraphPad Software, Inc., San Diego, CA, USA) by non-linear regression to provide estimates of the half maximal inhibitory concentration (IC50) values and the […]. […] The corresponding inhibition constants (Ki) of test compounds were derived from the IC50 values using the Cheng-Prusoff equation [49]. All binding experiments were performed in triplicates, and data are given as mean values from independent experiments.

[1] = target: T3, CB2 receptors in mouse spleen tissue (Mus musculus, UniProt P47936); assay: Autoradiographic displacement of [3H]CP55,940 on coronal mouse spleen sections; assay type: binding; conditions: read-out: Fractional occupancy of [3H]CP55,940 binding sites calculated by Gaddum equation
T3 construct: 12-μm-thick coronal sections obtained from the spleens of three animals; from tissue; host or cells: spleen sections of female CD-1 mice
Procedure: Animal experiments were performed under procedures approved by the State of Saxony Animal Care and Use Committee and conducted in accordance with the German Law for the Protection of Animals. Female CD-1 mice (10 to 12 weeks old, 20 to 25 g), obtained from the Medizinisch-Experimentelles Zentrum der Universität Leipzig (Leipzig, Germany), were used for the experiments.
The animals were anesthetized and sacrificed, and their spleens were rapidly removed and frozen in isopentane at −35°C. The spleens were brought to −15°C in a cryostat (Microm International GmbH, Walldorf, Germany), and a series of 12-μm-thick coronal sections obtained from the spleens of three animals were collected in parallel on microscopic glass slides. The sections were dried at room temperature and stored at −35°C until they were processed for receptor binding autoradiography.
For autoradiographic experiments, the slides were brought to room temperature, dried in a stream of cold air, pre-incubated in a binding buffer (50 mM TRIS (pH 7.4) at 21°C, 5% BSA) for 15 min at room temperature and dried again in a stream of cold air. […] Samples were washed twice for 30 min at 4°C in 50 mM TRIS (pH 7.4) at 4°C, containing 1% BSA, dipped briefly in ice-cold deionized water (5 s), dried in a stream of cold air and exposed along with [^3H] standards (Amersham/GE Healthcare, Piscataway, NJ, USA) for 14 days to [^3H]-sensitive screen plates (Fuji Photo Film, Co. Ltd., Tokyo, Japan).
The image plates were analysed using a BAS-1800II system bioimaging analyser (Fuji Photo Film, Co. Ltd., Tokyo, Japan). Scan data were visualized and processed by computer-assisted microdensitometry (Aida version 2.31, Raytest Isotopenmessgeräte GmbH, Straubenhardt, Germany). Irregular regions of interest (ROIs) were drawn on selected areas of the spleen labelled as red pulp (low-density binding) and white pulp (high-density binding) according to Lynn and Herkenham and Massi et al..

T1 sequence (P34972 whole entry): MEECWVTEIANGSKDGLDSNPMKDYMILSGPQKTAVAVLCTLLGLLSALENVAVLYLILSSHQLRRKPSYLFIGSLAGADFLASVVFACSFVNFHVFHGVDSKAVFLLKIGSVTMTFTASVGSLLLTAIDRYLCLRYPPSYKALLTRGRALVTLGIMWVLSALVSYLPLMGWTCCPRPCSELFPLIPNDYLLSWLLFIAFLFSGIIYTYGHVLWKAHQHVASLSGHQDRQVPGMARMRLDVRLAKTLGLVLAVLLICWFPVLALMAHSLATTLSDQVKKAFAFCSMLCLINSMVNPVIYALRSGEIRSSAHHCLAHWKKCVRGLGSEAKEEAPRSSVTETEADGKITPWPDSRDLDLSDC
T2 sequence (P21554 whole entry): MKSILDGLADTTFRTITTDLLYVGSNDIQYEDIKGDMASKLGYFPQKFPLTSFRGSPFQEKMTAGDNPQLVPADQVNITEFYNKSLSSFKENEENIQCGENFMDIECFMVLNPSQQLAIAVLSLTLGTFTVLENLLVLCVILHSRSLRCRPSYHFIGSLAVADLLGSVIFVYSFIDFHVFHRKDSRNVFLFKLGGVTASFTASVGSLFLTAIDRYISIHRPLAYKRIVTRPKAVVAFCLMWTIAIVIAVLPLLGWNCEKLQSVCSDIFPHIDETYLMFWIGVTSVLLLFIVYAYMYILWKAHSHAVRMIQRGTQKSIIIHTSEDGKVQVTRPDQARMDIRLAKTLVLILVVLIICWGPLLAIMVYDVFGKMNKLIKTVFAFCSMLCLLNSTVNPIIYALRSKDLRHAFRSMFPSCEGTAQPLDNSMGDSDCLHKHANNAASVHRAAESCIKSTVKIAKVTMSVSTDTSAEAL
T3 sequence (P47936 whole entry): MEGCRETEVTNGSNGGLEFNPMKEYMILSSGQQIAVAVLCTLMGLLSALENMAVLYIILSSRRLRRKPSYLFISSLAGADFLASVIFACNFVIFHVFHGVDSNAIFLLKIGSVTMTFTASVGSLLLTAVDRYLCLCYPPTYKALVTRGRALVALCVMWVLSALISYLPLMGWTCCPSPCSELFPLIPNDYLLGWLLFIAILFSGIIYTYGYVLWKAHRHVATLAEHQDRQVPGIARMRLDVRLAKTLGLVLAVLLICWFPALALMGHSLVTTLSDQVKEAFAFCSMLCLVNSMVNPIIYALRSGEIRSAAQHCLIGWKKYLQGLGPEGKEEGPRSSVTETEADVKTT

CCn1c2ccccc2c2cc(NC(=O)CCc3nc(-c4ccc(F)cc4F)no3)ccc21 [Compound 6h, 3-(3-(2,4-Difluorophenyl)-1,2,4-oxadiazol-5-yl)-N-(9-ethyl-9H-carbazol-3-yl)propanamide]
Ki (hCB2): 39.4 nM | Selectivity over hCB1 (hCB2; hCB2 versus hCB1): more than 1,000 fold | Ki (hCB1): > 1000 nM | receptor occupancy at 1 µM [1]: 83%
